# In article PMC6886798, “Expression of myeloid Src-family kinases is associated with poor prognosis in AML and influences Flt3-ITD kinase inhibitor acquired resistance” (PLoS ONE, 2019):
# Assays:
# Experiment in all cases: KINOMEscan
# Assay type in all cases: binding
# Conditions in all cases: 1.0 µM
# [1] = target: T1, EPHB3 (Homo sapiens, UniProt P54753)
# T1 construct: purchased Eurofins/DiscoverX KINOMEscan scanMAX
# Experimental: (§1) Kinase retention to the immobilized ligand is then measured using quantitative real-time PCR for each kinase-specific DNA barcode.
# [2] = target: T2, MST1 (Homo sapiens, UniProt Q13043)
# T2 construct: purchased Eurofins/DiscoverX KINOMEscan scanMAX
# Experimental: as §1
# [3] = target: T3, PIP5K1C (Homo sapiens, UniProt O60331)
# T3 construct: purchased Eurofins/DiscoverX KINOMEscan scanMAX
# Experimental: as §1
# [4] = target: T4, MAP3K4 (Homo sapiens, UniProt Q9Y6R4)
# T4 construct: purchased Eurofins/DiscoverX KINOMEscan scanMAX
# Experimental: as §1
# [5] = target: T5, BLK (Homo sapiens, UniProt P51451)
# T5 construct: purchased Eurofins/DiscoverX KINOMEscan scanMAX
# Experimental: as §1
# [6] = target: T6, MAST1 (Homo sapiens, UniProt Q9Y2H9)
# T6 construct: purchased Eurofins/DiscoverX KINOMEscan scanMAX
# Experimental: as §1
# [7] = target: T7, PKMYT1 (Homo sapiens, UniProt Q99640)
# T7 construct: purchased Eurofins/DiscoverX KINOMEscan scanMAX
# Experimental: as §1
# [8] = target: T8, DAPK1 (Homo sapiens, UniProt P53355)
# T8 construct: purchased Eurofins/DiscoverX KINOMEscan scanMAX
# Experimental: as §1
# [9] = target: T9, MEK4 (Homo sapiens, UniProt P45985)
# T9 construct: purchased Eurofins/DiscoverX KINOMEscan scanMAX
# Experimental: as §1
# [10] = target: T10, HIPK3 (Homo sapiens, UniProt Q9H422)
# T10 construct: purchased Eurofins/DiscoverX KINOMEscan scanMAX
# T10 sequence (Q9H422 whole entry): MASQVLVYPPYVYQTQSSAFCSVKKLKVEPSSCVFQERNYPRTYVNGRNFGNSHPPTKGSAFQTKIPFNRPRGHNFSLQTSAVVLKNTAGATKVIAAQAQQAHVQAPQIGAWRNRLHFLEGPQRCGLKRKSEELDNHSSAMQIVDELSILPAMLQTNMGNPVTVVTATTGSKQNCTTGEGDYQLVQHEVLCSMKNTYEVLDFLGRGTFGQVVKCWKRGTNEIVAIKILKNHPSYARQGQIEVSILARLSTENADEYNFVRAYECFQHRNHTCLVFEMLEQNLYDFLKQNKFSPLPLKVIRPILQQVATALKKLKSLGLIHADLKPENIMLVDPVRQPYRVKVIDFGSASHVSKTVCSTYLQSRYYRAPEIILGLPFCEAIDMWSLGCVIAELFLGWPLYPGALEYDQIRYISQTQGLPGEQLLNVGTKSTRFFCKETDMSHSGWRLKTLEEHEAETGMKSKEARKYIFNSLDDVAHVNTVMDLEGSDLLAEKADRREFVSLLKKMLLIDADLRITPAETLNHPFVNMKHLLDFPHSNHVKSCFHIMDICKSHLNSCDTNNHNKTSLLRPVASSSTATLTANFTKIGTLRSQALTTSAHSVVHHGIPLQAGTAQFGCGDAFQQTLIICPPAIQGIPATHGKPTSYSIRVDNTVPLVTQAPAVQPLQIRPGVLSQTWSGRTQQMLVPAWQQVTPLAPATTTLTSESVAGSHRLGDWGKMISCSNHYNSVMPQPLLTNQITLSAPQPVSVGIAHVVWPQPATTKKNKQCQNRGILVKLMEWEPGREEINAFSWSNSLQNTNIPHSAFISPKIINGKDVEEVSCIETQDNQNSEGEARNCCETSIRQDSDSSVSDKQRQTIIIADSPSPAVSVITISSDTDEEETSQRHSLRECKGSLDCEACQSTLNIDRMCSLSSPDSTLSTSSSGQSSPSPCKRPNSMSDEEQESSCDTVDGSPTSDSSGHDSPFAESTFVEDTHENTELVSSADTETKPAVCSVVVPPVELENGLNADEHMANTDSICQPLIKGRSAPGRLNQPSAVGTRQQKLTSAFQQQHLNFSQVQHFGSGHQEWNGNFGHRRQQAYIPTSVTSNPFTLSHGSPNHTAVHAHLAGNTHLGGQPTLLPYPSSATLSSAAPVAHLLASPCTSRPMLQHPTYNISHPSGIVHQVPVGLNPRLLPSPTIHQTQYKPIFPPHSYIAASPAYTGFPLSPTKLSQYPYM
# Experimental: as §1
# [11] = target: T11, BRAF(V600E) (Homo sapiens, UniProt P15056, V600E)
# T11 construct: purchased Eurofins/DiscoverX KINOMEscan scanMAX
# Experimental: as §1
# [12] = target: T12, SRPK1 (Homo sapiens, UniProt Q96SB4)
# T12 construct: purchased Eurofins/DiscoverX KINOMEscan scanMAX
# T12 sequence (Q96SB4 whole entry): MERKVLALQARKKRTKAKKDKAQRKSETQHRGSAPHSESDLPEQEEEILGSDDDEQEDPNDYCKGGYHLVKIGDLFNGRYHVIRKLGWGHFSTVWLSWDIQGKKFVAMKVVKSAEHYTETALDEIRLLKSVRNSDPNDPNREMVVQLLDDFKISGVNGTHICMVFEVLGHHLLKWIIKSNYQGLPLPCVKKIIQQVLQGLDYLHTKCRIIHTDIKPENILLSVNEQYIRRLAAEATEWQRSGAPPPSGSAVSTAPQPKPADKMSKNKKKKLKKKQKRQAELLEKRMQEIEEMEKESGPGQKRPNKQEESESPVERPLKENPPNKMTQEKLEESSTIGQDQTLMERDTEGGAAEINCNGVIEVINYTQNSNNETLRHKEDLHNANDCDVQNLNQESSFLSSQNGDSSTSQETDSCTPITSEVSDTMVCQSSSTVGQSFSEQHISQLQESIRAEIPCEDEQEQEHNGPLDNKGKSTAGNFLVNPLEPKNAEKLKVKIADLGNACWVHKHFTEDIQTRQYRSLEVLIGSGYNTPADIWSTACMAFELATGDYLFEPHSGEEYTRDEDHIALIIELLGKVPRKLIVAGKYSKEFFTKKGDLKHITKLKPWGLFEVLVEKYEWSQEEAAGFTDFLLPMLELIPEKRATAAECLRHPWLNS
# Experimental: as §1
# [13] = target: T13, ITK (Homo sapiens, UniProt Q08881)
# T13 construct: purchased Eurofins/DiscoverX KINOMEscan scanMAX
# Experimental: as §1
# [14] = target: T14, NEK2 (Homo sapiens, UniProt P51955)
# T14 construct: purchased Eurofins/DiscoverX KINOMEscan scanMAX
# Experimental: as §1
# [15] = target: T15, NEK6 (Homo sapiens, UniProt Q9HC98)
# T15 construct: purchased Eurofins/DiscoverX KINOMEscan scanMAX
# T15 sequence (Q9HC98 whole entry): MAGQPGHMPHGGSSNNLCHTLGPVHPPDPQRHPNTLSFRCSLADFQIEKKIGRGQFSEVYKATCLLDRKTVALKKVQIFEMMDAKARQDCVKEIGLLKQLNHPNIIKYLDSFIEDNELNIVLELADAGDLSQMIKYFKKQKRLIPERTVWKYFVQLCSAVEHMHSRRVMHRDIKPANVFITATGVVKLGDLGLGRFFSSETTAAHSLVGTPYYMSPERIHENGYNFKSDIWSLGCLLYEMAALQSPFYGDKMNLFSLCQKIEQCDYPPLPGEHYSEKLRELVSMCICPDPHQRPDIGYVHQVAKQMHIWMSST
# Experimental: as §1
# [16] = target: T16, KIT(A829P) (Homo sapiens, UniProt P10721, A829P)
# T16 construct: purchased Eurofins/DiscoverX KINOMEscan scanMAX
# Experimental: as §1
# [17] = target: T17, CDK3 (Homo sapiens, UniProt Q00526)
# T17 construct: purchased Eurofins/DiscoverX KINOMEscan scanMAX
# Experimental: as §1
# [18] = target: T18, LKB1 (Homo sapiens, UniProt Q15831)
# T18 construct: purchased Eurofins/DiscoverX KINOMEscan scanMAX
# Experimental: as §1
# [19] = target: T19, PIP5K1A (Homo sapiens, UniProt Q99755)
# T19 construct: purchased Eurofins/DiscoverX KINOMEscan scanMAX
# Experimental: as §1
# [20] = target: T20, AKT1 (Homo sapiens, UniProt P31749)
# T20 construct: purchased Eurofins/DiscoverX KINOMEscan scanMAX
# T20 sequence (P31749 whole entry): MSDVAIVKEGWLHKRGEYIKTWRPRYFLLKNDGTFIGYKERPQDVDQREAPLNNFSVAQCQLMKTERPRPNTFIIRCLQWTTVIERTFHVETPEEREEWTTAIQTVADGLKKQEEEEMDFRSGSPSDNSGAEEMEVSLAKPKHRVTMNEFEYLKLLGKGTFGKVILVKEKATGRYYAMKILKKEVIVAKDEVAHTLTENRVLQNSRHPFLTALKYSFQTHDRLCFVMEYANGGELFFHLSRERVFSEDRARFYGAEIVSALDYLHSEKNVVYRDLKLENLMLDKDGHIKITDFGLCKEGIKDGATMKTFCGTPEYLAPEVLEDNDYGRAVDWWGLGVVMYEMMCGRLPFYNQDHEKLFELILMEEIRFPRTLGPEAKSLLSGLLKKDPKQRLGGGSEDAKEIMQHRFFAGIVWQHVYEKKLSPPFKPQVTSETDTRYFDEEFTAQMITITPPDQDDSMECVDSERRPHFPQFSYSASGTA
# Experimental: as §1
# [21] = target: T21, DAPK2 (Homo sapiens, UniProt Q9UIK4)
# T21 construct: purchased Eurofins/DiscoverX KINOMEscan scanMAX
# Experimental: as §1
# [22] = target: T22, MKNK2 (Homo sapiens, UniProt Q9HBH9)
# T22 construct: purchased Eurofins/DiscoverX KINOMEscan scanMAX
# Experimental: as §1
# [23] = target: T23, CSNK1G3 (Homo sapiens, UniProt Q9Y6M4)
# T23 construct: purchased Eurofins/DiscoverX KINOMEscan scanMAX
# Experimental: as §1
# [24] = target: T24, NEK10 (Homo sapiens, UniProt Q6ZWH5)
# T24 construct: purchased Eurofins/DiscoverX KINOMEscan scanMAX
# Experimental: as §1
# [25] = target: T25, p38-delta (Homo sapiens, UniProt O15264)
# T25 construct: purchased Eurofins/DiscoverX KINOMEscan scanMAX
# Experimental: as §1
# [26] = target: T26, TNIK (Homo sapiens, UniProt Q9UKE5)
# T26 construct: purchased Eurofins/DiscoverX KINOMEscan scanMAX
# Experimental: as §1
# [27] = target: T27, FRK (Homo sapiens, UniProt P42685)
# T27 construct: purchased Eurofins/DiscoverX KINOMEscan scanMAX
# Experimental: as §1
# [28] = target: T28, FER (Homo sapiens, UniProt P16591)
# T28 construct: purchased Eurofins/DiscoverX KINOMEscan scanMAX
# T28 sequence (P16591 whole entry): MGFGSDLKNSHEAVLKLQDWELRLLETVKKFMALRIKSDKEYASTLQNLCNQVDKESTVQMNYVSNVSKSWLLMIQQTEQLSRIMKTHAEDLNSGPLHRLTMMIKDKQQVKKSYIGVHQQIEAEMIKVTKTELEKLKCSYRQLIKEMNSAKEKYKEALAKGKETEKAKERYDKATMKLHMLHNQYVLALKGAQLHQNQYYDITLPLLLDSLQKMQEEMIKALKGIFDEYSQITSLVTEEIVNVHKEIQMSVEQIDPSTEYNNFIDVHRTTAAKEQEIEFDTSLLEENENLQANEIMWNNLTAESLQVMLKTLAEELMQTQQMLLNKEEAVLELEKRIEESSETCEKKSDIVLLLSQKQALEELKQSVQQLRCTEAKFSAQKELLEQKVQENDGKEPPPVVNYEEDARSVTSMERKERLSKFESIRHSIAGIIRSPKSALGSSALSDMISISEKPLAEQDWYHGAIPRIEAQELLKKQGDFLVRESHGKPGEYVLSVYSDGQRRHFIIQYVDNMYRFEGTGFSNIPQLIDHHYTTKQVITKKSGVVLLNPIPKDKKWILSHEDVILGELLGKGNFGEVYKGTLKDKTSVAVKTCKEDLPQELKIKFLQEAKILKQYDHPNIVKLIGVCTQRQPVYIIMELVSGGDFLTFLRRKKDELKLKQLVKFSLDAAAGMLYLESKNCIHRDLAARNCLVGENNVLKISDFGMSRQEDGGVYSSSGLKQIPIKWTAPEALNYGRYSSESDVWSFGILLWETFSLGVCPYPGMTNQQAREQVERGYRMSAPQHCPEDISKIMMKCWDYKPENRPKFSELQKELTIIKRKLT
# Experimental: as §1
# [29] = target: T29, CAMKK1 (Homo sapiens, UniProt Q8N5S9)
# T29 construct: purchased Eurofins/DiscoverX KINOMEscan scanMAX
# Experimental: as §1
# [30] = target: T30, KIT (Homo sapiens, UniProt P10721)
# T30 construct: purchased Eurofins/DiscoverX KINOMEscan scanMAX
# Experimental: as §1
# [31] = target: T31, ERBB2 (Homo sapiens, UniProt P04626)
# T31 construct: purchased Eurofins/DiscoverX KINOMEscan scanMAX
# Experimental: as §1
# [32] = target: T32, ULK1 (Homo sapiens, UniProt O75385)
# T32 construct: DNA tag (qPCR barcode); purchased Eurofins/DiscoverX KINOMEscan scanMAX
# Experimental: as §1
# [33] = target: T33, SGK3 (Homo sapiens, UniProt Q96BR1)
# T33 construct: purchased Eurofins/DiscoverX KINOMEscan scanMAX
# Experimental: as §1
# [34] = target: T34, RIOK3 (Homo sapiens, UniProt O14730)
# T34 construct: purchased Eurofins/DiscoverX KINOMEscan scanMAX
# Experimental: as §1
# [35] = target: T35, ALK(C1156Y) (Homo sapiens, UniProt Q9UM73, C1156Y)
# T35 construct: purchased Eurofins/DiscoverX KINOMEscan scanMAX
# T35 sequence (Q9UM73 19-1620 C1156Y): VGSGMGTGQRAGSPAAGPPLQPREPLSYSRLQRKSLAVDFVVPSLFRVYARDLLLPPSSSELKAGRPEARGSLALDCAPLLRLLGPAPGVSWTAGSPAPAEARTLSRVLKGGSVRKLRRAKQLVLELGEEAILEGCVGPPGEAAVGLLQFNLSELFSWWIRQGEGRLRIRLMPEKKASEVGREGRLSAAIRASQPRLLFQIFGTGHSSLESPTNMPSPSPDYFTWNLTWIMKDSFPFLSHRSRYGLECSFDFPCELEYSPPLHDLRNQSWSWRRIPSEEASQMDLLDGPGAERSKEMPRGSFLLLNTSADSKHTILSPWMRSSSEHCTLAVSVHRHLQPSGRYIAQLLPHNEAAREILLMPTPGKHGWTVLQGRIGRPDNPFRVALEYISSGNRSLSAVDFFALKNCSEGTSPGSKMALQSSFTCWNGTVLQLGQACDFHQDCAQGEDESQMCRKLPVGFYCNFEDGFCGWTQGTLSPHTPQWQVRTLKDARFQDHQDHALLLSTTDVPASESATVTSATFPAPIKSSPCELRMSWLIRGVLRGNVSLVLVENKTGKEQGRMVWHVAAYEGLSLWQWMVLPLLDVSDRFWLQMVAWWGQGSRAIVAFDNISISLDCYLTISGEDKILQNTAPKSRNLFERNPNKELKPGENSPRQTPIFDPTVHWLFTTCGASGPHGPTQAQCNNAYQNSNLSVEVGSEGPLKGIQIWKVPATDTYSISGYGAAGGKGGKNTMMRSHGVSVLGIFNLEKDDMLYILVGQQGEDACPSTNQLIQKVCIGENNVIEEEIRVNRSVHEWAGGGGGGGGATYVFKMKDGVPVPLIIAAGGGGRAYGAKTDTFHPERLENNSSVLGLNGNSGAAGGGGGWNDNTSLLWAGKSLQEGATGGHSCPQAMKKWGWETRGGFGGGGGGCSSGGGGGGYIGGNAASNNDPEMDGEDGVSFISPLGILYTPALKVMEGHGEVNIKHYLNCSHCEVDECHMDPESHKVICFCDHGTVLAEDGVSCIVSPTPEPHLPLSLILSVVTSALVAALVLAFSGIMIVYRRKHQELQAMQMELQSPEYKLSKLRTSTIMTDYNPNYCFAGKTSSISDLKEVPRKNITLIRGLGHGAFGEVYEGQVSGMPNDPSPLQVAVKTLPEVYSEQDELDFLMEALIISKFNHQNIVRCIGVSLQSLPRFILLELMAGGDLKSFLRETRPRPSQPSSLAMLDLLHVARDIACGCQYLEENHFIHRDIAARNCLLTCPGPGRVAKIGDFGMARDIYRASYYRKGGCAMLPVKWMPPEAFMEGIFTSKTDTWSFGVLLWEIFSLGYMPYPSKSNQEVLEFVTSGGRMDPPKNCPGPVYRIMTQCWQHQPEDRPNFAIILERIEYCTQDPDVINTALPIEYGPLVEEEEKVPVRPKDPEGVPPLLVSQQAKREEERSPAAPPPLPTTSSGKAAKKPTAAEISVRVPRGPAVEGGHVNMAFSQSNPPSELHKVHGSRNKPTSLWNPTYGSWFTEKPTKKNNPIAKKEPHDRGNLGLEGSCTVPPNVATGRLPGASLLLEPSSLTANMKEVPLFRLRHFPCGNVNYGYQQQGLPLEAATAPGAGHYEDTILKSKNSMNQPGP
# Experimental: as §1
# [36] = target: T36, BMPR1A (Homo sapiens, UniProt P36894)
# T36 construct: purchased Eurofins/DiscoverX KINOMEscan scanMAX
# Experimental: as §1
# [37] = target: T37, MAP4K5 (Homo sapiens, UniProt Q9Y4K4)
# T37 construct: purchased Eurofins/DiscoverX KINOMEscan scanMAX
# Experimental: as §1
# [38] = target: T38, FLT3(D835V) (Homo sapiens, UniProt P36888, D835V)
# T38 construct: purchased Eurofins/DiscoverX KINOMEscan scanMAX
# Experimental: as §1
# [39] = target: T39, LRRK2(G2019S) (Homo sapiens, UniProt Q5S007, G2019S)
# T39 construct: purchased Eurofins/DiscoverX KINOMEscan scanMAX
# Experimental: as §1
# [40] = target: T40, LOK (Homo sapiens, UniProt O94804)
# T40 construct: purchased Eurofins/DiscoverX KINOMEscan scanMAX
# Experimental: as §1
# [41] = target: T41, PIM3 (Homo sapiens, UniProt Q86V86)
# T41 construct: purchased Eurofins/DiscoverX KINOMEscan scanMAX
# Experimental: as §1
# [42] = target: T42, MYLK2 (Homo sapiens, UniProt Q9H1R3)
# T42 construct: purchased Eurofins/DiscoverX KINOMEscan scanMAX
# Experimental: as §1
# [43] = target: T43, CDKL5 (Homo sapiens, UniProt O76039)
# T43 construct: purchased Eurofins/DiscoverX KINOMEscan scanMAX
# Experimental: as §1
smiles,measurement,setting,value
CN1CCN(C2CCC(n3cc(-c4ccc(Oc5ccccc5)cc4)c4c(N)ncnc43)CC2)CC1 (stereo not shown) [A-419259],% Control,[1],100%
same,% Control,[2],34%
same,% Control,[3],89%
same,% Control,[4],92%
same,% Control,[5],0.05%
same,% Control,[6],64%
same,% Control,[7],100%
same,% Control,[8],99%
same,% Control,[9],89%
same,% Control,[10],91%
same,% Control,[11],45%
same,% Control,[12],100%
same,% Control,[13],14%
same,% Control,[14],81%
same,% Control,[15],65%
same,% Control,[16],5.9%
same,% Control,[17],99%
same,% Control,[18],100%
same,% Control,[19],100%
same,% Control,[20],100%
same,% Control,[21],98%
same,% Control,[22],8.3%
same,% Control,[23],100%
same,% Control,[24],100%
same,% Control,[25],99%
same,% Control,[26],100%
same,% Control,[27],5.3%
same,% Control,[28],100%
same,% Control,[29],100%
same,% Control,[30],0.15%
same,% Control,[31],2.7%
same,% Control,[32],99%
same,% Control,[33],77%
same,% Control,[34],64%
same,% Control,[35],21%
same,% Control,[36],100%
same,% Control,[37],9.2%
same,% Control,[38],0.15%
same,% Control,[39],100%
same,% Control,[40],20%
same,% Control,[41],100%
same,% Control,[42],95%
same,% Control,[43],100%
